The results in this text go back to PubChem BioAssay AID1259411 (Chemical Carcinogenesis Research Information System (CCRIS), 2018).

This data set deals with rodent carcinogenicity bioassays, tumor incidence. The experiment in a line: CCRIS carcinogenicity studies. The essentials:
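Archive of carcinogenicity, mutagenicity, tumor promotion and tumor inhibition results drawn from journals, NCI reports and other sources, expert-reviewed; covers 1985-2011 and is no longer updated.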

Calls of active or inactive are those of the source. No rule for the calls is given here.

In the case of `Cc1c(N(C)CS(=O)(=O)O)c(=O)n(-c2ccccc2)n1C`, the carcinogen call runs as follows: (Species: MOUSE, Strain/Sex: B6C3F1/FEMALE, Route: ORAL, Dose: 0, 0.25, 1% IN DRINKING WATER FOR 78 WK (STUDY DURATION: 86 WK), Dose: 0, 0.25, 1% IN DRINKING WATER FOR 78 WK (STUDY DURATION: 86 WK), Tumor Site: Type of Lesion: LIVER: ADENOMA) “active; positive”; (Species: MOUSE, Strain/Sex: B6C3F1/MALE, Route: ORAL, Dose: 0, 0.125, 0.5% IN DRINKING WATER FOR 78 WK (STUDY DURATION: 86 WK), Dose: 0, 0.125, 0.5% IN DRINKING WATER FOR 78 WK (STUDY DURATION: 86 WK), Tumor Site: Type of Lesion: LIVER: ADENOMA) “active; positive”; (Species: RAT, Strain/Sex: F344/MALE, Route: ORAL, Dose: 0.4% IN DRINKING WATER FOR 72 WK (STUDY DURATION: 83 WK)) “inactive; negative”; (Species: RAT, Strain/Sex: WISTAR/FEMALE, Route: ORAL, Dose: 0, 1000, 3000 PPM IN DIET FOR 24 MO (STUDY DURATION: 30 MO), Dose: 0, 1000, 3000 PPM IN DIET FOR 24 MO (STUDY DURATION: 30 MO)) “inactive; negative”; (Species: RAT, Strain/Sex: WISTAR/MALE, Route: ORAL, Dose: 0, 1000, 3000 PPM IN DIET FOR 24 MO (STUDY DURATION: 30 MO), Dose: 0, 1000, 3000 PPM IN DIET FOR 24 MO (STUDY DURATION: 30 MO)) “inactive; negative”.
As for `Cc1ccc(S(=O)(=O)O)cc1C`, the carcinogen call was “inactive; negative” (Species: MOUSE, Strain/Sex: B6C3F1/FEMALE, Route: DERMAL, Dose: 0, 182, 364, 727 MG/KG IN 50% ETHANOL 5D/WK FOR 105 WK (STUDY DURATION: 105 WK), Dose: 0, 182, 364, 727 MG/KG IN 50% ETHANOL 5D/WK FOR 105 WK (STUDY DURATION: 105 WK)); “inactive; negative” (Species: MOUSE, Strain/Sex: B6C3F1/MALE, Route: DERMAL, Dose: 0, 182, 364, 727 MG/KG IN 50% ETHANOL 5D/WK FOR 104 WK (STUDY DURATION: 104 WK), Dose: 0, 182, 364, 727 MG/KG IN 50% ETHANOL 5D/WK FOR 104 WK (STUDY DURATION: 104 WK)); “inactive; negative” (Species: RAT, Strain/Sex: F344/FEMALE, Route: DERMAL, Dose: 0, 60, 120, 240 MG/KG IN 50% ETHANOL 5 D/WK FOR 104 WK (STUDY DURATION: 104 WK), Dose: 0, 60, 120, 240 MG/KG IN 50% ETHANOL 5 D/WK FOR 104 WK (STUDY DURATION: 104 WK)); “inactive; negative” (Species: RAT, Strain/Sex: F344/MALE, Route: DERMAL, Dose: 0, 60, 120, 240 MG/KG IN 50% ETHANOL 5D/WK FOR 104 WK (STUDY DURATION: 104 WK), Dose: 0, 60, 120, 240 MG/KG IN 50% ETHANOL 5D/WK FOR 104 WK (STUDY DURATION: 104 WK)).
Consider `CSC1=N[C@@](C)(c2ccccc2)C(=O)N1Nc1ccccc1`, for which the carcinogen call reads like this: (Species: Mouse, Strain/Sex: C57BL/10JfCD-1 Alpk/Female (55/Group), Route: Oral, Dose: 0, 70, 350, 3500, 7000 ppm (0; 12.6; 63.8; 690.5; 1393.2 mg/kg/d) for 80 wks, study duration 80 wks, Dose: 0, 70, 350, 3500, 7000 ppm (0; 12.6; 63.8; 690.5; 1393.2 mg/kg/d) for 80 wks, study duration 80 wks) “inactive; negative”; (Species: Mouse, Strain/Sex: C57BL/10JfCD-1 Alpk/Male (55/Group), Route: Oral, Dose: 0, 70, 350, 3500, 7000 ppm (0; 9.5; 47.5; 525.5; 1100.2 mg/kg/d) for 80 wks, study duration 80 wks, Dose: 0, 70, 350, 3500, 7000 ppm (0; 9.5; 47.5; 525.5; 1100.2 mg/kg/d) for 80 wks, study duration 80 wks) “inactive; negative”; (Species: Rat, Strain/Sex: Sprague-Dawley/Female (70/Group), Route: Oral, Dose: 0, 60, 150, 1000 ppm (0; 3.63; 9.24; 60.93 mg/kg/day) in diet for 104 wks, study duration 104 wks, Dose: 0, 60, 150, 1000 ppm (0; 3.63; 9.24; 60.93 mg/kg/day) in diet for 104 wks, study duration 104 wks) “inactive; negative”; (Species: Rat, Strain/Sex: Sprague-Dawley/Female (70/Group), Route: Oral, Dose: 0, 5000 ppm in diet for 104 wks, study duration 104 wks, Dose: 0, 5000 ppm in diet for 104 wks, study duration 104 wks) “inactive; negative”; (Species: Rat, Strain/Sex: Sprague-Dawley/Male (70/Group), Route: Oral, Dose: 0, 60, 150, 1000 ppm (0; 2.83; 7.07; 47.68 mg/kg/day) in diet for 104 wks, study duration 104 wks, Dose: 0, 60, 150, 1000 ppm (0; 2.83; 7.07; 47.68 mg/kg/day) in diet for 104 wks, study duration 104 wks) “inactive; negative”; (Species: Rat, Strain/Sex: Sprague-Dawley/Male (70/Group), Route: Oral, Dose: 0, 5000 ppm in diet for 104 wks, study duration 104 wks, Dose: 0, 5000 ppm in diet for 104 wks, study duration 104 wks) “inactive; negative”.
`ClC(Cl)C(Cl)Cl`: the carcinogen call was “active; positive” (Species: MOUSE, Strain/Sex: B6C3F1/FEMALE, Route: GAVAGE, Dose: 0, 142, 282 MG/KG N CORN OIL 5 D/WK FOR 78 WK (STUDY DURATION: 90 WK), Dose: 0, 142, 282 MG/KG N CORN OIL 5 D/WK FOR 78 WK (STUDY DURATION: 90 WK), Tumor Site: Type of Lesion: LIVER: HEPATOCELLULAR CARCINOMA); “active; positive” (Species: MOUSE, Strain/Sex: B6C3F1/MALE, Route: GAVAGE, Dose: 0, 142, 282 MG/KG IN CORN OIL 5 D/WK FOR 78 WK (STUDY DURATION: 90 WK), Dose: 0, 142, 282 MG/KG IN CORN OIL 5 D/WK FOR 78 WK (STUDY DURATION: 90 WK), Tumor Site: Type of Lesion: LIVER: HEPATOCELLULAR CARCINOMA); “inactive; negative” (Species: RAT, Strain/Sex: OSBORNE-MENDEL/FEMALE, Route: GAVAGE, Dose: 0, 43, 76 MG/KG IN CORN OIL 5 D/WK FOR 78 WK (STUDY DURATION: 110 WK), Dose: 0, 43, 76 MG/KG IN CORN OIL 5 D/WK FOR 78 WK (STUDY DURATION: 110 WK)); “equivocal” (Species: RAT, Strain/Sex: OSBORNE-MENDEL/MALE, Route: GAVAGE, Dose: 0, 62, 108 MG/KG IN CORN OIL 5 D/WK FOR 78 WK (STUDY DURATION: 110 WK), Dose: 0, 62, 108 MG/KG IN CORN OIL 5 D/WK FOR 78 WK (STUDY DURATION: 110 WK), Tumor Site: Type of Lesion: LIVER: NEOPLASTIC NODULE, HEPATOCELLULAR CARCINOMA).
Consider `O=[N+]([O-])c1c(Cl)c(Cl)c(Cl)c(Cl)c1Cl`, for which the carcinogen call was “active; positive” (Species: MOUSE, Route: DERMAL, Tumor Site: Type of Lesion: INTEGUMENTARY SYSTEM (SKIN)); “active; positive” (Species: MOUSE, Route: ORAL, Tumor Site: Type of Lesion: LIVER); “inactive; negative” (Species: MOUSE, Strain/Sex: B6C3F1/FEMALE, Route: ORAL, Dose: 0, 4093, 8187 PPM IN DIET, TWA, Dose: 0, 4093, 8187 PPM IN DIET, TWA); “inactive; negative” (Species: MOUSE, Strain/Sex: B6C3F1/MALE, Route: ORAL, Dose: 0, 2500, 5000 PPM IN DIET FOR 103 WK (STUDY DURATION = 104 WK), Dose: 0, 2500, 5000 PPM IN DIET FOR 103 WK (STUDY DURATION = 104 WK)); “inactive; negative” (Species: MOUSE, Strain/Sex: B6C3F1/MALE, Route: ORAL, Dose: 0, 2606, 5213 PPM IN DIET, TWA, Dose: 0, 2606, 5213 PPM IN DIET, TWA); “inactive; negative” (Species: RAT, Strain/Sex: OSBORNE-MENDEL/FEMALE, Route: ORAL, Dose: 0, 7875, 14635 PPM IN DIET, TWA, Dose: 0, 7875, 14635 PPM IN DIET, TWA). The carcinogen call (Species: RAT, Strain/Sex: OSBORNE-MENDEL/MALE, Route: ORAL, Dose: 0, 5417, 10064 PPM IN DIET, TWA, Dose: 0, 5417, 10064 PPM IN DIET, TWA) was “inactive; negative”.
As to `CC1CC(C)(C)CC(OOC(C)(C)C)(OOC(C)(C)C)C1` (stereo not drawn), the carcinogen call was “inactive; negative” (Species: MOUSE, Strain/Sex: B6C3F1/FEMALE, Route: ORAL, Dose: 0, 0.25, 0.5% IN DIET FOR 78 WK (STUDY DURATION: 83 WK), Dose: 0, 0.25, 0.5% IN DIET FOR 78 WK (STUDY DURATION: 83 WK)) and “inactive; negative” (Species: MOUSE, Strain/Sex: B6C3F1/MALE, Route: ORAL, Dose: 0, 0.25, 0.5% IN DIET FOR 78 WK (STUDY DURATION: 83 WK), Dose: 0, 0.25, 0.5% IN DIET FOR 78 WK (STUDY DURATION: 83 WK)).
